In PubChem BioAssay AID858 (Vanderbilt High Throughput Screening Facility, 2007):
The source made the active and inactive calls.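 Rule for the calls: active = at least two of three replicate dose series yielding a converging curve fit, whether well or thinly supported; inactive = the rest.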

The compounds below were run against D(1A) dopamine receptor (Homo sapiens) (UniProt P21728) (assay: D1 receptor modulation with EC30 dopamine, dose response, D1 allosteric modulator project, cell-based, CRE-luciferase, HEK293 (AID 858);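 note: HEK 293 cells bearing human D1 receptor stimulated by dopamine at its EC30; luciferase light from a cAMP response element reporter gene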).
D(1A) dopamine receptor (Homo sapiens), sequence (P21728 whole entry, looked up): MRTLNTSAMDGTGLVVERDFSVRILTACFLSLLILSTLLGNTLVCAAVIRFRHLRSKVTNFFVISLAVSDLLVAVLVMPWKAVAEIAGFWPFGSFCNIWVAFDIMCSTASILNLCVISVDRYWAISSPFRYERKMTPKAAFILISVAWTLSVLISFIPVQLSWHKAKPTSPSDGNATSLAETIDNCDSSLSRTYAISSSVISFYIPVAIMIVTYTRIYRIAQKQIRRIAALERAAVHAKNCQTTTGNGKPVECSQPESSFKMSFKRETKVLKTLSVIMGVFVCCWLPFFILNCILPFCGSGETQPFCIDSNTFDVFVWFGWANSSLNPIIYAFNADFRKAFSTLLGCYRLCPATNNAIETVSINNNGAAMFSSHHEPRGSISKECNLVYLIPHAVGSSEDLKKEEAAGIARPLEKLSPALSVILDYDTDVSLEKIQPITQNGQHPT
For `CCn1c(SCC(=O)Nc2cc(C)on2)nc2c(c1=O)SC(C)C2` (stereo unspecified), the outcome was “inactive”. For `COC(=O)c1c(-c2ccc(F)cc2)csc1NC(=O)c1ccco1`, the outcome was “inactive”. `COc1cc2c(cc1OC)C(C(=O)Nc1ccc3c(c1)OCCO3)C1c3ccccc3CCN1C2=O` (stereo unspecified) was tested, and the outcome was “inactive”. In the case of `O=C1C(Cl)=C(NCC2CCCO2)C(=O)N1C1CCCCC1` (stereo unspecified), the outcome is reported as “inactive”. Work on `C1CCC(c2nn3c(-c4n[nH]c5c4CCC5)nnc3s2)CC1` yielded an EC50 of 1.14 µM. `CCCCCn1c(N)c(C#N)c2nc3ccccc3nc21` was tested, and the outcome was “inactive”. With `CCCCn1c2nc3ccccc3nc2c2c(=O)n(C(C)CC)cnc21` (stereo unspecified) the outcome was “inactive”. With `CCc1nn(CCCC(=O)N2CCc3ccccc3C2)c(=O)c2cc3occc3n12` the outcome was “inactive”. In the case of `Nc1nonc1-n1nnc(C(=O)c2ccccc2)c1-c1ccccc1`, the outcome is reported as “inactive”. In the case of `Cc1ccccc1NC(=O)c1nc[nH]c1C(=O)NCc1ccccc1`, the outcome is reported as “inactive”. In the case of `CCCn1c(SCC(=O)Nc2sc(C)c(C)c2C(=O)OCC)nc2c1c(=O)n(C)c(=O)n2C`, the outcome is reported as “inactive”. `c1ccc(Cn2nnc3c(N4CCc5ccccc54)ncnc32)cc1` was tested, and the outcome was “inactive”. In the case of `O=c1n(Cc2ccccc2)c2cc(Cl)cnc2n1Cc1ccccc1`, the outcome is reported as “inactive”. `CCC(=O)NC(=Nc1nc2ccccc2s1)NC(=O)CC` was tested, and the outcome was “inactive”. In the case of `N#Cc1c2c(nc(N)c1-c1ccccc1)CCCCC2`, the outcome is reported as “inactive”. In the case of `COCCNc1oc(-c2ccc(C)cc2)nc1C#N`, the outcome is reported as “inactive”. `Cc1ccc(CCNS(=O)(=O)c2cnc[nH]2)cc1` was tested, and the outcome was “inactive”. In the case of `CCOC(=O)c1c(C)c(C(=O)NCc2ccccc2OC)c(C)n1C`, the outcome is reported as “inactive”. With `CCOC(=O)CN(C(=O)CSc1nnc(-c2ccc(OC)c(OC)c2)o1)c1ccc(F)cc1` the outcome was “inactive”. `CC(C)Cn1c(-c2cccs2)nc2nc3ccccc3nc21` was tested, and the outcome was “inactive”. In the case of `CSc1ccccc1NC(=O)c1onc(C)c1Cl`, the outcome is reported as “inactive”. For `Cc1cc(C)nc(SCC(=O)N2CCCCC2)n1`, the outcome was “inactive”. With `Cc1ccc2c(c1)-c1c(ssc1=S)C(C)(C)N2C(=O)CSc1nncn1C` the outcome was “inactive”. With `Clc1ccccc1-c1nn2c(-c3ccncc3)nnc2s1` the outcome was “inactive”. `COc1ccc(OC)c(C2=NOC(C(=O)Nc3cccc(C(C)=O)c3)C2)c1` (stereo unspecified) was tested, and the outcome was “inactive”. For `Cc1ccc(Oc2ccccc2)c(NC=O)c1`, the outcome was “inactive”. For `CCCCCn1c(SCC(=O)OC)nc2c1c(=O)[nH]c(=O)n2C`, the outcome was “inactive”. `COc1ncnc2c1N[C@@](C)(O)c1c(F)c(F)c(F)c(F)c1S2` was tested, and the outcome was “inactive”. `COCCCNc1c2c3c(cccc3[nH]c1=O)C(=O)c1ccccc1-2` was tested, and the outcome was “inactive”. In the case of `COc1ccc(CCN(C)C(=O)C2CCCN(Cc3ccc(OC)c(OC)c3)C2)cc1OC` (stereo unspecified), the outcome is reported as “inactive”. With `O=CN1Cc2[nH]c3ccccc3c2N(c2ccc(Cl)cc2)C1=O` the outcome was “inactive”. In the case of `C=CCSc1nc2ccccc2c(=O)[nH]1`, the outcome is reported as “inactive”. In the case of `CCOc1ccccc1NC(=O)CN(C)S(=O)(=O)c1cccc2nsnc12`, the outcome is reported as “inactive”. In the case of `C=CCn1c(=O)c2c(C)c(C)sc2n2c(Nc3ccc(OC)cc3)nnc12`, the outcome is reported as “inactive”. For `CCOC(=O)C(C)Oc1cccc2c(=O)n(CC(=O)NCc3ccco3)ccc12` (stereo unspecified), the outcome was “inactive”. With `CCOC(=O)CSc1nc2c(sc(=S)n2Cc2ccco2)c(=O)n1-c1ccccc1` the outcome was “inactive”. With `COc1ccccc1NC(=O)CC1Nc2ccccc2NC1=O` (stereo unspecified) the outcome was “inactive”. For `COc1ccc(C2CC(=O)Nc3ccccc3S2(=O)=O)cc1OC` (stereo unspecified), the outcome was “inactive”. `CCSC(C)CC1C/C(=N/O)c2c(CC)noc2C1` (stereo unspecified) was tested, and the outcome was “inactive”. With `CC(=O)C1=C(C)NC(SCC(=O)c2ccc(F)cc2)=C(C#N)C1c1ccco1` (stereo unspecified) the outcome was “inactive”. For `COC(=O)c1cc(=O)n(Cc2ccco2)c(=Nc2ccc(F)c(Cl)c2)s1`, the outcome was “inactive”. With `c1ccc(-c2nc3nonc3nc2-c2ccccc2)cc1` the outcome was “inactive”. With `Nc1nc(CN2CCN(c3ccccn3)CC2)nc(Nc2ccc(Cl)cc2)n1` the outcome was “inactive”. In the case of `CCOc1cc(C2CC(=O)NC(SCC)=C2C#N)ccc1O` (stereo unspecified), the outcome is reported as “inactive”. For `Cc1ccc(-n2c(SCC(=O)OC(C)C)nnc2-c2cnccn2)cc1`, the outcome was “inactive”. For `Cc1cccc(Cc2c(C)nc3c(C(=O)NCc4ccco4)cnn3c2C)c1`, the outcome was “inactive”. `COC(=O)c1ccc(CSc2nc3c(cnn3-c3ccc(F)cc3)c(=O)[nH]2)o1` gave an EC50 of 2.49 µM. In the case of `CCOC(=O)NCCc1ccc(OC)cc1`, the outcome is reported as “inactive”. With `Cc1ccc(Nc2nnc(SCc3cc(=O)n4ccsc4n3)s2)c(C)c1` the outcome was “inactive”. In the case of `N#CCCN1CCN(S(=O)(=O)c2ccc(S(=O)(=O)NC3CCCCC3)cc2)CC1`, the outcome is reported as “inactive”. In the case of `CC(=O)Nc1nc2n(n1)C(c1ccccc1)C=C(c1ccccc1)N2` (stereo unspecified), the outcome is reported as “inactive”. `O=C(CCCc1nc2ccccc2s1)N1CCN(S(=O)(=O)c2cccs2)CC1` was tested, and the outcome was “inactive”. For `CC(C)n1c(C(O)c2ccccc2)nc2ccccc21` (stereo unspecified), the outcome was “inactive”. `Cc1c(C(=O)OCC(C)C)[nH]c2c1C(=O)CC(c1ccco1)C2` (stereo unspecified) gave an EC50 of 1.57 µM. With `CCOC(=O)c1c(C2CC2)csc1NC(C)=O` the outcome was “inactive”. In the case of `CCOC(=O)c1cc2c(=O)n3ccccc3nc2n(CCCOC)c1=NC(=O)C(C)(C)C`, the outcome is reported as “inactive”. With `O=S(=O)(Nc1cc(Cl)ccc1N1CCCCC1)c1cccs1` the outcome was “inactive”. In the case of `O=C1COc2ccc(C(=O)c3ccccc3)cc2CN1`, the outcome is reported as “inactive”. With `CCOC(=O)Cc1[nH]nc2c1C(c1cccc(OC)c1OC)C(C#N)=C(N)O2` (stereo unspecified) the outcome was “inactive”. `CCCCn1c(=O)c(C(=O)Nc2cnccn2)c(O)c2ccccc21` was tested, and the outcome was “inactive”. In the case of `COc1cccc(N2C(=O)C3ON(c4ccccc4)C(c4cccs4)C3C2=O)c1` (stereo unspecified), the outcome is reported as “inactive”. `COC(=O)c1ccc(C(=O)OC)c(NC(=O)COC(=O)C23CC4CC(CC(O)(C4)C2)C3)c1` was tested, and the outcome was “inactive”. With `N#CC1=C(N)Oc2n[nH]c(-c3cccs3)c2C1c1ccsc1` (stereo unspecified) the outcome was “inactive”. In the case of `Cn1c(=O)c2c(-c3ccccc3)n(N3CCOCC3)cc2n(C)c1=O`, the outcome is reported as “inactive”. With `Cc1c(C)c2ccc(OC3CCCCC3=O)cc2oc1=O` (stereo unspecified) the outcome was “inactive”. In the case of `Cc1cc(Br)c2c(c1)=C(c1sc(N3CCCCCC3)nc1O)C(=O)N=2`, the EC50 is reported as 1.35 µM. `O=C(CCc1ccc(CCC(=O)c2cccs2)s1)c1cccs1` was tested, and the outcome was “inactive”. For `CCOc1ccccc1C1CC(c2ccccc2)Nc2nc(N)nn21` (stereo unspecified), the outcome was “inactive”. In the case of `CCC(=O)n1nc(-c2cccnc2)nc1NCc1ccc(OC)cc1`, the outcome is reported as “inactive”. `O=C1N(CN2CCN(c3cccc(Cl)c3)CC2)c2ccccc2C12OCCCO2` was tested, and the outcome was “inactive”. For `CC(C)Cn1c(=O)c(C(=O)Nc2cnccn2)c(O)c2ccccc21`, the outcome was “inactive”. For `N#Cc1nc(-c2ccccc2Cl)oc1N1CCOCC1`, the outcome was “inactive”. For `Cn1cnc2c1c(=O)n(Cc1ccc(F)cc1Cl)c(=O)n2C`, the outcome was “inactive”. In the case of `CCSc1cnc(-c2ccccc2)n1CC`, the outcome is reported as “inactive”. With `CCOC(=O)CCSc1nc(C)c2ccccc2n1` the outcome was “inactive”. With `O=C(c1ccco1)N1CCN(S(=O)(=O)c2ccc3c(c2)CCN3C(=O)C2CC2)CC1` the outcome was “inactive”. With `COc1ccc(OC)c(C2C=C(c3ccc(C)c(C)c3)Nc3nnnn32)c1` (stereo unspecified) the outcome was “inactive”. `CCn1ncc(C2=NOC(C(=O)Nc3ccc4c(c3)OCO4)C2)c1C` (stereo unspecified) was tested, and the outcome was “inactive”. `O=C1CSc2ccccc2N1Cc1ccccc1F` was tested, and the outcome was “inactive”. In the case of `Cc1nc2sc3c(c2c(=O)[nH]1)CCC3`, the outcome is reported as “inactive”. In the case of `COC(=O)c1c(-c2ccccc2)csc1NC(=O)c1ccco1`, the outcome is reported as “inactive”. `COC(=O)c1cc(NC(=O)CSc2nc(C)cc(=O)[nH]2)cc(C(=O)OC)c1` was tested, and the outcome was “inactive”. `C=CCn1c(SCc2nc3c(c(=O)[nH]c(=O)n3CCCC)n2CCC)nnc1-c1ccccc1` was tested, and the outcome was “inactive”. `COC(=O)c1ccc(OCCn2cnc3ccccc3c2=O)cc1` was tested, and the outcome was “inactive”. For `CC(=O)N1CCC2(CC1)C(C#N)=C(N)Oc1c2sc2nc(C)cc(C)c12`, the outcome was “inactive”. `NC(=O)COc1ccc(NC(=O)OCc2ccccc2)cc1` was tested, and the outcome was “inactive”. `COc1ccc(C(=O)Nc2nnc(Cc3cccs3)s2)cc1OC` was tested, and the EC50 was 0.313 µM. With `CNc1nc(C)c(C(=O)OCC(=O)OC)s1` the outcome was “inactive”. In the case of `CCn1c(SCC(=O)Nc2ccccc2N2CCCCC2)nc2c1c(=O)n(C)c(=O)n2C`, the outcome is reported as “inactive”. `CC(=O)c1cc(C#N)c(SCc2ccncc2)nc1C` was tested, and the outcome was “inactive”. In the case of `Cc1cc(O)c(C=Nc2cccc(Cl)c2)c(=O)o1`, the outcome is reported as “inactive”. In the case of `N#CC1=C(N)n2c(s/c(=C\c3ccco3)c2=O)=C(C#N)C1c1ccco1` (stereo unspecified), the outcome is reported as “inactive”. With `Cc1ccc(Cn2c(-n3nc(C)cc3C)nc3c2c(=O)[nH]c(=O)n3C)cc1` the outcome was “inactive”. With `Cc1cccc(-c2c3c(=O)n(C)c(=O)n(C)c3cn2-c2ccccc2O)c1` the outcome was “inactive”. `Cn1c2c(c3ccccc31)CC/C2=N\O` was tested, and the outcome was “inactive”. `COC(=O)c1sc2ccccc2c1C(=O)OC` was tested, and the outcome was “inactive”. `COc1ccc(Cn2nnc3c(=O)[nH]c(C4CCCN(C(=O)c5ccccc5)C4)nc32)cc1` (stereo unspecified) was tested, and the outcome was “inactive”. In the case of `CCN1C(=O)c2cccc3c(S(=O)(=O)Nc4ccccn4)ccc1c23`, the outcome is reported as “inactive”. `COc1ccc(-c2noc(COc3ccc4ccccc4c3Br)n2)cc1OC` was tested, and the outcome was “inactive”. In the case of `COc1ccccc1CNC(=O)c1ccc(NS(=O)(=O)c2c(C)noc2C)cc1`, the outcome is reported as “inactive”. With `COc1cccc(-c2nn3c(-c4cc(C)[nH]n4)nnc3s2)c1` the outcome was “inactive”. For `CC(C)OC(=O)CSc1nnc(-c2cnccn2)n1-c1ccc(Cl)cc1`, the outcome was “inactive”. With `C/C(CCc1oc2ccccc2c1-c1ccc(C)o1)=N/O` the outcome was “inactive”. `O=S1(=O)N=C(N2CCc3ccccc3C2)c2ccccc21` was tested, and the outcome was “inactive”. `NC(=O)c1cc(-c2ccccc2)nc(N2CCCCCC2)n1` was tested, and the outcome was “inactive”. In the case of `CCn1cc(C(=O)NCC2COc3ccccc3O2)c2cc(OC)c(OC)cc2c1=O` (stereo unspecified), the outcome is reported as “inactive”. `CCOC(=O)c1ccc(Oc2cc(C)nc(SC)n2)cc1` was tested, and the outcome was “inactive”. In the case of `COC(=O)c1ccc(COc2nc(C)cc(C)c2C#N)o1`, the outcome is reported as “inactive”. For `Cn1c(SCc2ccon2)nc2ccccc2c1=O`, the outcome was “inactive”. For `COc1ccc(N2C(=O)C3CCCN3C2c2ccccc2)cc1Cl` (stereo unspecified), the outcome was “inactive”. `Cc1ccc(-c2nc3ncccn3c2NC(=O)C2CC2)cc1` was tested, and the outcome was “inactive”.
